Laboratory results published in patent publication US20230145868A1, “UREA INHIBITORS OF MICRO-RNA” (Board of Regents, The University of Texas System, priority 2020, published 2023).

Experiments:
miR-10b [1] = test: Luciferase reporter assay of miR-10b inhibition, MCF7 cells; format: cell-based; conditions: Homo sapiens, MCF7, 48 h
Text: (§1) To identify miR-10b inhibitors, a luciferase reporter system was designed with complementary oligonucleotides for miR-10b.This luciferase reporter would repress Renilla luciferase signal in the presence of a functional mature miR-10b. However, in the presence of a small molecule that can inhibit mature miR-10b expression or affect its downstream function, the luciferase expression is restored again.
(§2) The PsiCHECK™-2 luciferase reporter vector was acquired from Promega™, Complementary oligonucleotides for hsa-miR-10b were designed based on the mature miRNA sequence and obtained from Thermo Fisher Scientific. In the design of the microRNA target sequence, several base pairs were added to have two different restriction sites recognizable by the enzyme SgfI at one side, and PmeI on the other (present in the vector as well). In addition, the insert was designed with a restriction site for SacI enzyme in order to have an additional site to digest the vector when monitoring colonies for the presence/absence of the insert. The designed oligonucleotides were annealed as follows: Complementary strands were mixed at a 1:1 molar ratio in a micro centrifuge tube. The mixture was diluted to a final concentration of 1 pmol/μl with a buffer solution of 10 mM Tris, 1 mM EDTA, and 50 mM NaCl (pH 8.0). Mixes were incubated at 95° C. for 5 min, and then the heat was reduced gradually for 70 min, until reaching 4° C. The annealed oligonucleotides were digested along with the PsiCHECK™2 vector with SgfI and PmeI and ligated at the 3′-UTR (downstream) of the Renilla luciferase reporter gene in the PsiCHECK™-2vector. Insert sequences were further confirmed in two ways: enzymatic digestion and sequencing.
(§3) MCF7 cells were seeded 24 h prior to transfection in 96 well plates (2.0×10^4 cells/well). For testing the sensitivity of the assay, antagomiRs and pre-miRs against miR-10b were used at a final concentration of 100 nM. For testing small molecule miRNA inhibitors, the compounds of interest were added to a final concentration of 10 μM. The assay was done in MCF7 or MDA-MB-231 cells at approximately 60% confluence using Lipofectamine in Opti-Mem media with the final vector concentration of 250 ng/mL. All transfections were performed in triplicate for statistical analysis. The cells were incubated at 37° C. for 6 h, followed by replacement of the transfected media with fresh media. After 48 h incubation, the media was removed, and cells were lysed and assayed with a Dual Luciferase Assay Kit (Promega) using a Vi-Tech luminometer. The ratio of Renilla to firefly luciferase expression was calculated for each of the triplicates.

miR-10b [2] = test: Luciferase reporter assay of miR-10b inhibition, MDA-MB-231 cells; format: cell-based; conditions: Homo sapiens, MDA-MB-231, 48 h
Text: as §1, §2, §3

mature miR-10b = test: RT-qPCR of mature miR-10b; format: cell-based, human; conditions: AGS gastric cell line; normalized to U6; vs DMSO
Method: (§4) Potential small molecule miRNA inhibitors were tested in MCF7 cells, a metastatic cell line (MM231) and an HCC cell line (HepG2) through RT-qPCR. Cells were seeded in 12-well plates 24 h before treatments at a confluence of 50-60%. They were treated at a concentration of 10 μM linifanib (positive control) or DMSO (negative control), and RNA was collected after 24 and 48 h. MicroRNA expression was tested using TaqMan microRNA assay (Applied Biosystems). The cDNA was synthesized using TaqMan Reverse Transcription Reagents kit (Applied Biosystems) and employed for quantitative RT-qPCR analysis together with TaqMan probes and SsoFastSupermix (Bio-rad). Primers and probes were purchased for hsa-miR-10b, hsa-pri-miR-10b, U6, and U48 snRNA that was used as an internal control.
(§5) To detect the levels of the precursor sequences, cDNA was synthesized using the SuperScript III cDNA kit (Invitrogen). Diluted cDNA was used for RT-qPCR analysis using iQ SYBR Green Supermix (Bio-Rad) with primers designed by in-house. Experiments were performed in triplicate; treated samples were compared to the DMSO-treated controls and normalized to the internal control. Relative expression levels were calculated using the 2-ΔCt method.

pre-miR-10b = test: RT-qPCR of precursor miR-10b; format: cell-based, human; conditions: AGS gastric cell line; normalized to U6; vs DMSO
Method: as §4, §5

[3] = Table 3, MCF7, 10 μM compound, vs negative control (DMSO), mean of triplicate, read-out: n-fold increase in luciferase expression, Mean
[4] = Table 3, MCF7, 10 μM compound, vs negative control (DMSO), replicate #1, read-out: n-fold increase in luciferase expression, #1
[5] = Table 3, MCF7, 10 μM compound, vs negative control (DMSO), replicate #2, read-out: n-fold increase in luciferase expression, #2
[6] = Table 3, MCF7, 10 μM compound, vs negative control (DMSO), replicate #3, read-out: n-fold increase in luciferase expression, #3
[7] = Table 6, MCF7, second biological replicant, 10 μM compound, mean of triplicate, read-out: n-fold increase in luciferase expression, Mean
[8] = Table 6, MCF7, second biological replicant, 10 μM compound, replicate #1, read-out: n-fold increase in luciferase expression, #1
[9] = Table 6, MCF7, second biological replicant, 10 μM compound, replicate #2, read-out: n-fold increase in luciferase expression, #2
[10] = Table 6, MCF7, second biological replicant, 10 μM compound, replicate #3, read-out: n-fold increase in luciferase expression, #3
[11] = Table 5, MDA-MB-231, 10 μM compound, vs negative control (DMSO), mean of triplicate, read-out: n-fold increase in luciferase expression, Mean
[12] = Table 5, MDA-MB-231, 10 μM compound, vs negative control (DMSO), replicate #1, read-out: n-fold increase in luciferase expression, #1
[13] = Table 5, MDA-MB-231, 10 μM compound, vs negative control (DMSO), replicate #2, read-out: n-fold increase in luciferase expression, #2
[14] = Table 5, MDA-MB-231, 10 μM compound, vs negative control (DMSO), replicate #3, read-out: n-fold increase in luciferase expression, #3
[15] = Table 7, MDA-MB-231, second biological replicant, 10 μM compound, mean of triplicate, read-out: n-fold increase in luciferase expression, Mean
[16] = Table 7, MDA-MB-231, second biological replicant, 10 μM compound, replicate #1, read-out: n-fold increase in luciferase expression, #1
[17] = Table 7, MDA-MB-231, second biological replicant, 10 μM compound, replicate #2, read-out: n-fold increase in luciferase expression, #2
[18] = Table 7, MDA-MB-231, second biological replicant, 10 μM compound, replicate #3, read-out: n-fold increase in luciferase expression, #3
[19] = Table 4, MCF7, 10 μM compound, vs negative control (DMSO), mean of triplicate, read-out: n-fold increase in luciferase expression, Mean
[20] = Table 4, MCF7, 10 μM compound, vs negative control (DMSO), replicate #1, read-out: n-fold increase in luciferase expression, #1
[21] = Table 4, MCF7, 10 μM compound, vs negative control (DMSO), replicate #2, read-out: n-fold increase in luciferase expression, #2
[22] = Table 4, MCF7, 10 μM compound, vs negative control (DMSO), replicate #3, read-out: n-fold increase in luciferase expression, #3

SMILES | fold induction at 10 µM (miR-10b [1]; [3]) | fold induction at 10 µM (miR-10b [1]; [4]) | fold induction at 10 µM (miR-10b [1]; [5]) | fold induction at 10 µM (miR-10b [1]; [6]) | fold induction at 10 µM (miR-10b [1]; [7]) | fold induction at 10 µM (miR-10b [1]; [8]) | fold induction at 10 µM (miR-10b [1]; [9]) | fold induction at 10 µM (miR-10b [1]; [10]) | fold induction at 10 µM (miR-10b [2]; [11]) | fold induction at 10 µM (miR-10b [2]; [12]) | fold induction at 10 µM (miR-10b [2]; [13]) | fold induction at 10 µM (miR-10b [2]; [14]) | fold induction at 10 µM (miR-10b [2]; [15]) | fold induction at 10 µM (miR-10b [2]; [16]) | fold induction at 10 µM (miR-10b [2]; [17]) | fold induction at 10 µM (miR-10b [2]; [18]) | fold induction at 10 µM (miR-10b [1]; [19]) | fold induction at 10 µM (miR-10b [1]; [20]) | fold induction at 10 µM (miR-10b [1]; [21]) | fold induction at 10 µM (miR-10b [1]; [22]) | also measured
Cc1ccc(F)c(NC(=O)Nc2ccc(-c3cccc4[nH]ncc34)cc2)c1 [Example 3, 1-(4-(1H-indazol-4-yl)phenyl)-3-(2-fluoro-5-methylphenyl)urea] | 0.26 | 0.238 | 0.246 | 0.292 | 0.18 | 0.257 | 0.176 | 0.117 | 0.46 | 0.423 | 0.643 | 0.312 | 0.17 | 0.193 | 0.149 | 0.163 | – | – | – | – | –
Cc1ccc(F)c(NC(=O)Nc2ccc(-c3cnc(N)nc3)cc2)c1 [Example 5, 1-(4-(2-aminopyrimidin-5-yl)phenyl)-3-(2-fluoro-5-methylphenyl)urea] | 2.86 | 1.99 | 1.49 | 5.1 | 2.12 | 3.03 | 1.73 | 1.59 | 1.04 | 1.13 | 1.01 | 0.99 | 1.3 | 0.26 | 1.57 | 2.06 | – | – | – | – | level of mature miR-10b (mature miR-10b): reduce the level of mature miR-10b; expression of pre-miR-10b (pre-miR-10b): increased expression of pre-miR-10b
Cc1ccc(F)c(NC(=O)Nc2ccc(-c3cccc4c3NC(=O)C4)cc2)c1 [Example 7, 1-(2-fluoro-5-methylphenyl)-3-(4-(2-oxoindolin-7-yl)phenyl)urea] | – | – | – | – | 1.25 | 1.86 | 0.957 | 0.935 | 1.05 | 1.01 | 1.09 | 1.05 | 1.19 | 1.16 | 1.31 | 1.11 | 2.41 | 1.34 | 5.06 | 0.822 | –
Cc1ccc(F)c(NC(=O)Nc2ccc(-c3ccccn3)cc2)c1 [Example 8, 1-(2-fluoro-5-methylphenyl)-3-(4-(pyridin-2-yl)phenyl)urea] | – | – | – | – | 1.24 | 1.82 | 1.04 | 0.857 | 0.78 | 0.566 | 0.991 | 0.793 | 1.15 | 1.39 | 1 | 1.05 | 3.92 | 4.6 | 6.07 | 1.08 | –
Nc1n[nH]c2cccc(-c3ccc(NC(=O)Nc4ccncc4)cc3)c12 [Example 9, 1-(4-(3-amino-1H-indazol-4-yl)phenyl)-3-(pyridin-4-yl)urea] | – | – | – | – | 1.29 | 2.17 | 0.859 | 0.84 | 1.41 | 1.14 | 2.05 | 1.05 | 1.56 | 1.39 | 1.61 | 1.67 | 2.11 | 0.94 | 4.2 | 1.2 | –
